Assay results reported in patent US9925205B2, “Compositions of multicationic drugs for reducing interactions with polyanionic biomolecules and methods of use thereof” (Insmed Incorporated, priority 2007, dated 2018).
“And” between values parts separate entries of the source, which are not always exact repeats. Identical values can stand only once. Counter-ions that a name gives are not always drawn.

Tests used:
[1] = Effect of mono- and multi-protonic acid salts on binding of amikacin to alginate
Experimental: Various salts were tested for their ability to compete with alginate. Amikacin sulfate (0.1 mL of 1 mg/ml) was added to 0.4 mL solution of 1% Na Alginate and 0.5 mL solution of 200 mM Na salt of an Acid at pH 6.0. Samples were incubated 10 minutes at 37° C. and centrifuged in Centricon-10 for 30 minutes at 4000 rpm. Filtrate was diluted 2 fold with TDX buffer and analyzed for AMK.

[2] = Effect of pH on ability of citrate to compete with alginate for amikacin (Centricon-10, TDX); assay type: binding
Experimental: How pH affects the ability of citrate to compete with alginate for amikacin was also tested. Here 0.5 mL sodium alginate (2%) was mixed with 0.4 mL sodium citrate (200 mM) and 0.1 mL amikacin sulfate (1 mg/mL), giving corresponding final concentrations of 1%, 80 mM, and 100 ug/mL, respectively. Two controls using either alginate or citrate alone were employed. Samples were incubated for 10 minutes at 37° C. and unbound amikacin was separated by centrifuging in Centrico-10 device for 30 minutes at 4000 rpm. Amikacin in permeate was measured by TDX (Abbott) and presented as % of total (Table 3).

[3] = Amikacin-citrate binding determined indirectly from competitive binding with alginate (Centricon filter); design: AMKAlg (AMKtot—AMKperm) / AMKfree / AMKcitrate: unit not given here
Experimental: The binding of a multicationic drug, such as amikacin, to alginate in presence salts of various (one-, two- and three-protonic) acids was tested. To study the effect of binding of amikacin to alginate, amikacin sulfate, Na citrate and Na alginate were mixed at different proportions and then free (unbound) amikacin was separated on a Cetricon-10 filtering device (MWCO 10 kD). In the absence of citrate, amikacin binds to alginate only, and the amikacin-alginate binding coefficient can be calculated from equation: […]
In the presence of citrate, amikacin can bind to both alginate and citrate. The amikacin-citrate complex is not large enough to be retained by Centricon filter and will be measured as “free” amikacin, which is actually a sum of free and citrate bound amikacin. For that reason amikacin-citrate binding can not be measured directly. It can, however, be determined indirectly from competitive binding, knowing amikacin-alginate binding coefficient PAlg.
Amikacin-citrate binding coefficient was Pcit=0.076 mM^−1. Thus in the presence of 1/Pcit˜13 mM citrate the concentration of amikacin bound to citrate is approximately equal to the concentration of free amikacin. As one can see from the above data, citrate can compete for amikacin with alginate thus reducing amount of amikacin bound to alginate. 1% Alginate can reduce AMK free concentration ˜7-fold. Citrate at 40 mM reduces this effect increasing unbound AMK ˜2.5 fold.

[4] = Effect of pH on ability of citrate to compete with alginate for amikacin (Centricon-10, TDX); assay type: binding; remark: listed apart in the source
[5] = Binding of amikacin to alginate in saline, free amikacin separated on Centricon-10 filter; conditions: for AMKAlg (bound amikacin, AMKt-AMKf) / AMKAlg/AMKf / AMKfree: saline, no citrate; for AMKfree: total amikacin 92.5 ug/mL
Experimental: The binding of a multicationic drug, such as amikacin, to alginate in presence salts of various (one-, two- and three-protonic) acids was tested. To study the effect of binding of amikacin to alginate, amikacin sulfate, Na citrate and Na alginate were mixed at different proportions and then free (unbound) amikacin was separated on a Cetricon-10 filtering device (MWCO 10 kD). In the absence of citrate, amikacin binds to alginate only, and the amikacin-alginate binding coefficient can be calculated from equation:
[formula] where bound amikacin can be found by subtracting free from total, and alginate free concentration is assumed to be equal to the total concentration due to excess of alginate over amikacin.
As alginate concentration increases, amikacin free measured in permeate decreases (Table 1). According to Equation 1 the ratio AMKAlg/AMKf should be proportional to the concentration of alginate, and the slope of this dependence should equal to the binding coefficient.
If one use a linear regression, the slope obtained gives us an estimate of the amikacin-alginate binding coefficient of PAlg=0.76 (mg/mL)^−1. This means that in presence of 1/PAlg˜1.3 mg/mL alginate approximately half of all amikacin will be bound to alginate.

[6] = tested on: P. Aeruginosa PAC1; assay: In-vitro bioactivity of amikacin, modified disk Kirby-Bauer agar diffusion method; assay type: cell-based; conditions: for Zone size (mm): three values
Experimental: It has been shown elsewhere […] that amikacin-alginate binding can in fact reduce amikacin bioactivity against PA. One may ask whether binding to citrate will preserve bioactivity or inhibit it similar to alginate. In order to address this, activity of amikacin against P. Aeruginosa PAC1 using modified disk Kirby-Bauer agar diffusion method was tested. […] Absence of supplements was used as a control.
Activity was determined using modified disk Kirby-Bauer agar diffusion method and PAC1 PA strain.

[7] = 0.1 mL 1 mg/ml amikacin sulfate + 0.4 mL 1% Na Alginate + 0.5 mL 200 mM Na salt of the acid, pH 6.0, 10 minutes at 37° C.
[8] = Alginate 1%, 80 mM Citrate at pH 6-7
[9] = alginate 6 mg/mL, citrate 60 mM
[10] = alginate 10 mg/mL, citrate 40 mM
[11] = alginate 14 mg/mL, citrate 20 mM
[12] = alginate 16 mg/mL, citrate 10 mM

O=C(O)CC(O)(CC(=O)O)C(=O)O [Sodium citrate]
Amikacin not bound to alginate (%) [1, 7]: 72.1%

CC(=O)[O-].[Na+] [Sodium acetate]
Amikacin not bound to alginate (%) [1, 7]: 11.2% | effect of the salt on unbound amikacin (in words) ([1]; as Table 4): not showing any increase in unbound amikacin

NCC[C@H](O)C(=O)N[C@@H]1C[C@H](N)[C@@H](O[C@H]2O[C@H](CN)[C@@H](O)[C@H](O)[C@H]2O)[C@H](O)[C@H]1O[C@H]1O[C@H](CO)[C@@H](O)[C@H](N)[C@H]1O [amikacin]
Amikacin not bound to alginate (%) ([1]; Control (no acid salt named)): 17.7% | binding capacity of alginate [2]: at least 0.05 mg amikacin per mg alginate | Amikacin not bound to alginate (%) ([2]; Alg + Citrate pH 5, alginate 1%, citrate 80 mM, amikacin 100 ug/mL): 56.4% | Amikacin not bound to alginate (%) ([2]; Alg + Citrate pH 6, alginate 1%, citrate 80 mM, amikacin 100 ug/mL): 70.4% | Amikacin not bound to alginate (%) ([2]; Alg + Citrate pH 7, alginate 1%, citrate 80 mM, amikacin 100 ug/mL): 68.1% | Amikacin not bound to alginate (%) ([2]; Alg, no Citrate, alginate 1%, amikacin 100 ug/mL): 11.9% | Amikacin not bound to alginate (%) ([2]; Alg, no Citrate, alginate 1%, amikacin 100 ug/mL, listed as AMK): 12% | AMK binding to alginate [2, 8]: ~30% | unbound AMK [2, 8]: ~70% | AMK bound by alginate ([2]; Alginate 1%, absence of citrate): ~88% | Amikacin not bound to alginate (%) ([2]; Citrate, no Alginate): 100% | 1/Pcit, citrate concentration at which amikacin bound to citrate approximately equals free amikacin [3]: ~13 mM | increase of unbound AMK by citrate ([3]; Citrate at 40 mM, 1% Alginate): ~2.5 fold | AMKAlg (AMKtot—AMKperm) ([3]; alginate 0 mg/mL, citrate 0 mM): 0 | AMKcit/AMKf ([3]; alginate 0 mg/mL, citrate 0 mM): 0 | AMKcitrate ([3]; alginate 0 mg/mL, citrate 0 mM): 0 | AMKfree ([3]; alginate 0 mg/mL, citrate 0 mM): 92.5 | AMKperm ([3]; alginate 0 mg/mL, citrate 0 mM): 92.5 µg/mL | AMKAlg (AMKtot—AMKperm) [3, 9]: 40.9 | AMKcit/AMKf [3, 9]: 4.72 | AMKcitrate [3, 9]: 42.59 | AMKfree [3, 9]: 9.01 | AMKperm [3, 9]: 51.6 µg/mL | AMKAlg (AMKtot—AMKperm) [3, 10]: 60.5 | AMKcit/AMKf [3, 10]: 3.00 | AMKcitrate [3, 10]: 24.00 | AMKfree [3, 10]: 8.00 | AMKperm [3, 10]: 32.0 µg/mL | AMKAlg (AMKtot—AMKperm) [3, 11]: 77 | AMKcit/AMKf [3, 11]: 1.13 | AMKcitrate [3, 11]: 8.23 | AMKfree [3, 11]: 7.27 | AMKperm [3, 11]: 15.5 µg/mL | AMKAlg (AMKtot—AMKperm) [3, 12]: 82.4 | AMKcit/AMKf [3, 12]: 0.48 | AMKcitrate [3, 12]: 3.29 | AMKfree [3, 12]: 6.81 | AMKperm [3, 12]: 10.1 µg/mL | Pcit AMK-Citrate binding coefficient ([3]; slope of AMKcit/AMKf vs citrate concentration): 0.076 mM⁻¹ | Amikacin not bound to alginate (%) ([4]; Alg, no Citrate, AMK 0.5 mg/mL): 14.5% | Alginate binding efficiency ([4]; no citrate, total amikacin 0.5 mg/mL): 85.5% | 1/PAlg, alginate concentration at which approximately half of all amikacin is bound to alginate [5]: ~1.3 mg/mL | reduction of AMK free concentration by alginate ([5]; 1% Alginate): ~7 fold | AMKAlg (bound amikacin, AMKt-AMKf) ([5]; alginate 0 mg/mL): 0 µg/mL | AMKAlg/AMKf ([5]; alginate 0 mg/mL): 0 | AMKfree ([5]; alginate 0 mg/mL): 92.5 µg/mL | AMKAlg (bound amikacin, AMKt-AMKf) ([5]; alginate 6 mg/mL): 72.5 µg/mL | AMKAlg/AMKf ([5]; alginate 6 mg/mL): 3.63 | AMKfree ([5]; alginate 6 mg/mL): 20 µg/mL | AMKAlg (bound amikacin, AMKt-AMKf) ([5]; alginate 10 mg/mL): 79.9 µg/mL | AMKAlg/AMKf ([5]; alginate 10 mg/mL): 6.34 | AMKfree ([5]; alginate 10 mg/mL): 12.6 µg/mL | AMKAlg (bound amikacin, AMKt-AMKf) ([5]; alginate 14 mg/mL): 84.5 µg/mL | AMKAlg/AMKf ([5]; alginate 14 mg/mL): 10.56 | AMKfree ([5]; alginate 14 mg/mL): 8 µg/mL | AMKAlg (bound amikacin, AMKt-AMKf) ([5]; alginate 16 mg/mL): 86 µg/mL | AMKAlg/AMKf ([5]; alginate 16 mg/mL): 13.23 | AMKfree ([5]; alginate 16 mg/mL): 6.5 µg/mL | PAlg AMK-Alginate binding coefficient ([5]; slope of AMKAlg/AMKf vs alginate concentration, linear regression): 0.76 (mg/ml)^−1 | Zone size (mm) ([6]; Alginate 1%): 21 mm | Zone size (mm) ([6]; Alginate + Citrate): 28 mm and 29 mm | Zone size (mm) ([6]; Citrate 100 mM): 28 mm | effect on activity of amikacin (in words) ([6]; Citrate at concentration 100 mM): does not affect activity | Zone size (mm) ([6]; Control, MH medium without supplements): 28 mm and 29 mm | effect on activity of amikacin (in words) ([6]; both alginate and citrate present): citrate actually restored activity of amikacin

Sodium tartarate
Amikacin not bound to alginate (%) [1, 7]: 41.4% | Amikacin not bound to alginate (%) ([1]; 0.1 mL 1 mg/ml amikacin sulfate + 0.4 mL 1% Na Alginate + 0.5 mL 200 mM Na salt of the acid, pH 6.0, 10 minutes at 37° C., listed as taratrate): ~40%

O=C([O-])CCC(=O)[O-].[Na+].[Na+] [Sodium succinate]
Amikacin not bound to alginate (%) [1, 7]: 40.2% | Amikacin not bound to alginate (%) ([1]; 0.1 mL 1 mg/ml amikacin sulfate + 0.4 mL 1% Na Alginate + 0.5 mL 200 mM Na salt of the acid, pH 6.0, 10 minutes at 37° C., listed as succinate): ~40%

O=C([O-])CCCC(=O)[O-].[Na+].[Na+] [Sodium glutarate]
Amikacin not bound to alginate (%) [1, 7]: 36.7% | Amikacin not bound to alginate (%) ([1]; 0.1 mL 1 mg/ml amikacin sulfate + 0.4 mL 1% Na Alginate + 0.5 mL 200 mM Na salt of the acid, pH 6.0, 10 minutes at 37° C., listed as glutarate): ~40%

O=C([O-])/C=C\C(=O)[O-].[Na+].[Na+] [Sodium maleate]
Amikacin not bound to alginate (%) [1, 7]: 39.4% | Amikacin not bound to alginate (%) ([1]; 0.1 mL 1 mg/ml amikacin sulfate + 0.4 mL 1% Na Alginate + 0.5 mL 200 mM Na salt of the acid, pH 6.0, 10 minutes at 37° C., listed as maleate): ~40%
